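How tested: cells in 96-well plates exposed to compound for 48 hours at five concentrations. The concentration for 50% growth inhibition is given as GI50. TGI: total growth inhibition.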
Columns and labels:
Assay in all cases: NCI-60 cell line screen, 48 h
[1] = tested on: 786-0 renal
[2] = tested on: A498 renal
[3] = tested on: A549 NSCLC
[4] = tested on: ACHN renal
[5] = tested on: BT-549 breast
[6] = tested on: CAKI-1 renal
[7] = tested on: CCRF-CEM leukemia
[8] = tested on: COLO 205 colon
[9] = tested on: DU-145 prostate
[10] = tested on: EKVX NSCLC
[11] = tested on: HCC-2998 colon
[12] = tested on: HCT-116 colon
[13] = tested on: HCT-15 colon
[14] = tested on: HL-60(TB) leukemia
[15] = tested on: HOP-62 NSCLC
[16] = tested on: HOP-92 NSCLC
[17] = tested on: HS 578T breast
[18] = tested on: HT29 colon
[19] = tested on: IGROV1 ovarian
[20] = tested on: K-562 leukemia
[21] = tested on: KM12 colon
[22] = tested on: LOX IMVI melanoma
[23] = tested on: M14 melanoma
[24] = tested on: MALME-3M melanoma
[25] = tested on: MCF7 breast
[26] = tested on: MDA-MB-231 breast
[27] = tested on: MDA-MB-435
[28] = tested on: MOLT-4 leukemia
[29] = tested on: NCI-H226 lung
[30] = tested on: NCI-H23 lung
[31] = tested on: NCI-H460 lung
[32] = tested on: NCI-H522 lung
[33] = tested on: NCI/ADR-RES ovarian
[34] = tested on: OVCAR-3 ovarian
[35] = tested on: OVCAR-4 ovarian
[36] = tested on: OVCAR-5 ovarian
[37] = tested on: OVCAR-8 ovarian
[38] = tested on: PC-3 prostate
[39] = tested on: RPMI-8226 leukemia
[40] = tested on: RXF 393 renal
[41] = tested on: SF-268 CNS
[42] = tested on: SF-295 CNS
[43] = tested on: SF-539 CNS
[44] = tested on: SK-MEL-2 melanoma
[45] = tested on: SK-MEL-28 melanoma
[46] = tested on: SK-MEL-5 melanoma
[47] = tested on: SK-OV-3 ovarian
[48] = tested on: SN12C renal
[49] = tested on: SNB-19 CNS
[50] = tested on: SNB-75 CNS
[51] = tested on: SR leukemia
[52] = tested on: SW-620 colon
[53] = tested on: T-47D breast
[54] = tested on: TK-10 renal
[55] = tested on: U251 CNS
[56] = tested on: UACC-257 melanoma
[57] = tested on: UACC-62 melanoma
[58] = tested on: UO-31 renal

Question: `COC(=O)c1cc(-c2ccc(S(C)(=O)=O)cc2)[nH]c1N/N=C/c1c(Cl)cccc1Cl` was tested. Which GI50 [1] did it give?
Answer: 747 nM

Question: And the TGI [1]?
Answer: > 32200 nM

Question: And the GI50 [2]?
Answer: 334 nM

Question: And the TGI [2]?
Answer: 4750 nM

Question: What about the GI50 [3] of the same compound?
Answer: 656 nM

Question: What about the TGI [3] of the same compound?
Answer: > 39400 nM

Question: What about the GI50 [4] of the same compound?
Answer: 2000 nM

Question: And the TGI [4]?
Answer: > 100000 nM

Question: And the GI50 [5]?
Answer: 915 nM

Question: And the TGI [5]?
Answer: 62000 nM

Question: What about the GI50 [6] of the same compound?
Answer: 377 nM

Question: And the TGI [6]?
Answer: 13900 nM

Question: And the GI50 [7]?
Answer: 759 nM

Question: And the GI50 [8]?
Answer: 491 nM

Question: What about the TGI [8] of the same compound?
Answer: 4720 nM

Question: And the GI50 [9]?
Answer: 732 nM

Question: And the TGI [9]?
Answer: 5530 nM

Question: And the GI50 [10]?
Answer: 1110 nM

Question: And the TGI [10]?
Answer: > 76100 nM

Question: And the GI50 [11]?
Answer: 987 nM

Question: What about the TGI [11] of the same compound?
Answer: 19800 nM

Question: What about the GI50 [12] of the same compound?
Answer: 454 nM

Question: What about the TGI [12] of the same compound?
Answer: > 47900 nM

Question: What about the GI50 [13] of the same compound?
Answer: 463 nM

Question: And the TGI [13]?
Answer: > 100000 nM

Question: What about the GI50 [14] of the same compound?
Answer: 570 nM

Question: What about the TGI [14] of the same compound?
Answer: > 100000 nM

Question: And the GI50 [15]?
Answer: 787 nM

Question: And the TGI [15]?
Answer: 32900 nM

Question: What about the GI50 [16] of the same compound?
Answer: 845 nM

Question: And the TGI [16]?
Answer: > 28200 nM

Question: What about the GI50 [17] of the same compound?
Answer: 318 nM

Question: What about the TGI [17] of the same compound?
Answer: 3450 nM

Question: And the GI50 [18]?
Answer: 373 nM

Question: What about the TGI [18] of the same compound?
Answer: 4450 nM

Question: What about the GI50 [19] of the same compound?
Answer: 482 nM

Question: What about the TGI [19] of the same compound?
Answer: 67300 nM

Question: What about the GI50 [20] of the same compound?
Answer: 1870 nM

Question: And the TGI [20]?
Answer: > 100000 nM

Question: And the GI50 [21]?
Answer: 386 nM

Question: What about the TGI [21] of the same compound?
Answer: 10000 nM

Question: And the GI50 [22]?
Answer: 1610 nM

Question: And the TGI [22]?
Answer: > 100000 nM

Question: What about the GI50 [23] of the same compound?
Answer: 624 nM

Question: What about the TGI [23] of the same compound?
Answer: 9770 nM

Question: What about the GI50 [24] of the same compound?
Answer: 1350 nM

Question: And the TGI [24]?
Answer: 23100 nM

Question: What about the GI50 [25] of the same compound?
Answer: 329 nM

Question: What about the TGI [25] of the same compound?
Answer: 20800 nM

Question: What about the GI50 [26] of the same compound?
Answer: 1730 nM

Question: And the TGI [26]?
Answer: > 100000 nM

Question: And the GI50 [27]?
Answer: 214 nM

Question: And the TGI [27]?
Answer: 578 nM

Question: What about the GI50 [28] of the same compound?
Answer: 514 nM

Question: And the TGI [28]?
Answer: > 100000 nM

Question: And the GI50 [29]?
Answer: 1020 nM

Question: And the TGI [29]?
Answer: > 22900 nM

Question: What about the GI50 [30] of the same compound?
Answer: 750 nM

Question: And the TGI [30]?
Answer: > 93700 nM

Question: What about the GI50 [31] of the same compound?
Answer: 367 nM

Question: And the TGI [31]?
Answer: 10300 nM

Question: And the GI50 [32]?
Answer: 988 nM

Question: And the GI50 [33]?
Answer: 343 nM

Question: And the TGI [33]?
Answer: 11500 nM

Question: And the GI50 [34]?
Answer: 273 nM

Question: And the TGI [34]?
Answer: 704 nM

Question: What about the GI50 [35] of the same compound?
Answer: 1700 nM

Question: And the TGI [35]?
Answer: > 100000 nM

Question: And the GI50 [36]?
Answer: 4080 nM

Question: And the TGI [36]?
Answer: > 100000 nM

Question: And the GI50 [37]?
Answer: 1270 nM

Question: What about the TGI [37] of the same compound?
Answer: 98100 nM

Question: What about the GI50 [38] of the same compound?
Answer: 565 nM

Question: And the TGI [38]?
Answer: > 50000 nM

Question: And the GI50 [39]?
Answer: 491 nM

Question: What about the TGI [39] of the same compound?
Answer: > 39100 nM

Question: And the GI50 [40]?
Answer: 1040 nM

Question: And the TGI [40]?
Answer: > 100000 nM

Question: And the GI50 [41]?
Answer: 587 nM

Question: And the TGI [41]?
Answer: > 56400 nM

Question: And the GI50 [42]?
Answer: 281 nM

Question: And the TGI [42]?
Answer: 3240 nM

Question: And the GI50 [43]?
Answer: 496 nM

Question: And the TGI [43]?
Answer: 4790 nM

Question: And the GI50 [44]?
Answer: 765 nM

Question: And the TGI [44]?
Answer: > 52900 nM

Question: And the GI50 [45]?
Answer: 893 nM

Question: What about the TGI [45] of the same compound?
Answer: > 58200 nM

Question: And the GI50 [46]?
Answer: 427 nM

Question: And the TGI [46]?
Answer: 14500 nM

Question: And the GI50 [47]?
Answer: 852 nM

Question: And the TGI [47]?
Answer: 28600 nM

Question: What about the GI50 [48] of the same compound?
Answer: 699 nM

Question: What about the TGI [48] of the same compound?
Answer: > 100000 nM

Question: And the GI50 [49]?
Answer: 516 nM

Question: What about the TGI [49] of the same compound?
Answer: > 100000 nM

Question: And the GI50 [50]?
Answer: 298 nM

Question: What about the TGI [50] of the same compound?
Answer: 1930 nM

Question: What about the TGI [51] of the same compound?
Answer: > 100000 nM

Question: What about the GI50 [52] of the same compound?
Answer: 362 nM

Question: And the TGI [52]?
Answer: > 100000 nM

Question: What about the GI50 [53] of the same compound?
Answer: 374 nM

Question: What about the TGI [53] of the same compound?
Answer: > 35700 nM

Question: What about the GI50 [54] of the same compound?
Answer: 988 nM

Question: What about the TGI [54] of the same compound?
Answer: 38300 nM

Question: What about the GI50 [55] of the same compound?
Answer: 489 nM

Question: What about the TGI [55] of the same compound?
Answer: > 54600 nM

Question: And the GI50 [56]?
Answer: 2820 nM

Question: And the TGI [56]?
Answer: > 100000 nM

Question: What about the GI50 [57] of the same compound?
Answer: 391 nM

Question: And the TGI [57]?
Answer: > 47900 nM

Question: What about the GI50 [58] of the same compound?
Answer: 490 nM

Question: What about the TGI [58] of the same compound?
Answer: 37500 nM

Reference: PubChem BioAssay (NCI)
